Assay [1] relates to Staphylococcus aureus (ATCC 25923). Nature of the assay: bioautographical method on a layer of agar. Particulars: against S. aureus; Mueller-Hinton agar, 37° C., 24 hours, MTT. It counts as cell-based. As for the experimental part:
(§1) The antimicrobial activity of this compound was detected employing the bioautographical method on a layer of agar (Rahalison,L.; Hamburger, M., Hostettmann, K.; Monod, M.; Frenk, E. Phytochemical Ananlysis.2.199-203.1991). The following micro-organisms were tested: Escherichia coli (ATCC 25922) and Staphylococcus aureus (ATCC 25923). The medium used was the Mueller-Hinton in agar (Oxoid). The cultures grew during the night in nutrient medium broth number 3 (Fluka). For the bioautographic test the cultures were standardised through successive dilutions in 10^5 cells/ml. The plaques were incubated at 37° C. for a period of 24 hours, sprayed with an aqueous solution of Methylthiazolyltetrazolium chloride (MTT)at 0.25% and then incubated for a further two hours at 37° C. The active fractions were detected under the form of white areas of inhibition on a lilac background.

For assay [2], the system named is Escherichia coli (ATCC 25922). The experiment in a line: bioautographical method on a layer of agar. In kind it is cell-based. The following applies: against E. coli; Mueller-Hinton agar, 37° C., 24 hours, MTT. As for the experimental part: as §1

Consider `CC(C)C1(C(=O)O)OC(=O)/C(=C/c2ccccc2)O1` (centres unmarked) [compound of the invention, (Z)-5-benzylidene-2-isopropyl-4-oxo-1.3-dioxolane-2-carboxyl acid], for which the antibacterial activity amounted to 75 nM in assay [1] and 150 nM in assay [2].
